Assay results reported in US9532520B2, “Drought tolerant plants” (NUNHEMS B.V., priority 2009, dated 2017).

Tested on: tomato seedlings (Solanum lycopersicum cv. Moneymaker)
Experiment: Root growth assay on ½MS media containing ABA
Type: in vivo
Details: wild type tomato; 0, 5, 10 or 40 μM ABA; root length seven days after transfer, relative to medium without ABA
Description: Seeds were sterilized as described above and sown in water containing […]. After radicle protrusion ten seeds of each line were placed on ½MS media containing either 0, 5, 10, or 40 μM ABA. The roots were measured and the plates were placed in vertical position and grown under conditions described above. Seven days after transfer the length of the root was measured again and root growth was calculated as a percentage of root growth compared to ½MS media without ABA (100%). Experiments were carried out three times and mean values plus SD are shown. Student's t-tests were performed to test for significance (p<0.05).

CC1=CC(=O)CC(C)(C)[C@@]1(O)/C=C/C(C)=C\C(=O)O [ABA, abscisic acid]
root growth after germination: reduced
